From patent US20230150974A1 (Foghorn Therapeutics Inc., priority 2020, published 2023)
Structures can show the parent of a compound that is named as a salt.

What was measured:
[1] = biological target: T1, HiBiT-BRM (Homo sapiens, UniProt P51531); experiment: HiBiT-BRM cell-based degradation assay (Nano-Glo HiBiT Lytic Detection); details: HeLa cells expressing HiBiT-BRM, 24 h; for DC50: read-out: BRM HiBit Degradation IC50
T1 construct: expressed in transfected cells
Outline: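 HeLa cells stably expressing HiBiT-tagged BRM were treated for 24 h, then lysed with LgBiT-containing Nano-Glo reagent and luminescence read. % degradation scaled between DMSO (high control) and 2 μM reference BRM/BRG1 degrader (low control).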

[2] = biological target: T2, HiBit-BRG1 (Homo sapiens, UniProt P51532); experiment: HiBit-BRG1 cell-based degradation assay (Nano-Glo HiBiT Lytic Detection); details: HeLa cells expressing HiBit-BRG1 and LgBit, 24 h; for DC50: read-out: BRG1 HiBit Degradation IC50; for Dmax: read-out: BRG1 HiBit Degradation Maximum (%)
T2 construct: expressed in transfected cells
Outline: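 Seed 5000 HeLa HiBit-BRG1/LgBit cells per well; treat 24 h; equilibrate 15 min at room temperature; add Nano-Glo HiBiT lytic reagent, shake 10 min, read luminescence. Percent degradation is scaled between DMSO and 2 μM reference degrader wells.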

T1 sequence (P51531 whole entry): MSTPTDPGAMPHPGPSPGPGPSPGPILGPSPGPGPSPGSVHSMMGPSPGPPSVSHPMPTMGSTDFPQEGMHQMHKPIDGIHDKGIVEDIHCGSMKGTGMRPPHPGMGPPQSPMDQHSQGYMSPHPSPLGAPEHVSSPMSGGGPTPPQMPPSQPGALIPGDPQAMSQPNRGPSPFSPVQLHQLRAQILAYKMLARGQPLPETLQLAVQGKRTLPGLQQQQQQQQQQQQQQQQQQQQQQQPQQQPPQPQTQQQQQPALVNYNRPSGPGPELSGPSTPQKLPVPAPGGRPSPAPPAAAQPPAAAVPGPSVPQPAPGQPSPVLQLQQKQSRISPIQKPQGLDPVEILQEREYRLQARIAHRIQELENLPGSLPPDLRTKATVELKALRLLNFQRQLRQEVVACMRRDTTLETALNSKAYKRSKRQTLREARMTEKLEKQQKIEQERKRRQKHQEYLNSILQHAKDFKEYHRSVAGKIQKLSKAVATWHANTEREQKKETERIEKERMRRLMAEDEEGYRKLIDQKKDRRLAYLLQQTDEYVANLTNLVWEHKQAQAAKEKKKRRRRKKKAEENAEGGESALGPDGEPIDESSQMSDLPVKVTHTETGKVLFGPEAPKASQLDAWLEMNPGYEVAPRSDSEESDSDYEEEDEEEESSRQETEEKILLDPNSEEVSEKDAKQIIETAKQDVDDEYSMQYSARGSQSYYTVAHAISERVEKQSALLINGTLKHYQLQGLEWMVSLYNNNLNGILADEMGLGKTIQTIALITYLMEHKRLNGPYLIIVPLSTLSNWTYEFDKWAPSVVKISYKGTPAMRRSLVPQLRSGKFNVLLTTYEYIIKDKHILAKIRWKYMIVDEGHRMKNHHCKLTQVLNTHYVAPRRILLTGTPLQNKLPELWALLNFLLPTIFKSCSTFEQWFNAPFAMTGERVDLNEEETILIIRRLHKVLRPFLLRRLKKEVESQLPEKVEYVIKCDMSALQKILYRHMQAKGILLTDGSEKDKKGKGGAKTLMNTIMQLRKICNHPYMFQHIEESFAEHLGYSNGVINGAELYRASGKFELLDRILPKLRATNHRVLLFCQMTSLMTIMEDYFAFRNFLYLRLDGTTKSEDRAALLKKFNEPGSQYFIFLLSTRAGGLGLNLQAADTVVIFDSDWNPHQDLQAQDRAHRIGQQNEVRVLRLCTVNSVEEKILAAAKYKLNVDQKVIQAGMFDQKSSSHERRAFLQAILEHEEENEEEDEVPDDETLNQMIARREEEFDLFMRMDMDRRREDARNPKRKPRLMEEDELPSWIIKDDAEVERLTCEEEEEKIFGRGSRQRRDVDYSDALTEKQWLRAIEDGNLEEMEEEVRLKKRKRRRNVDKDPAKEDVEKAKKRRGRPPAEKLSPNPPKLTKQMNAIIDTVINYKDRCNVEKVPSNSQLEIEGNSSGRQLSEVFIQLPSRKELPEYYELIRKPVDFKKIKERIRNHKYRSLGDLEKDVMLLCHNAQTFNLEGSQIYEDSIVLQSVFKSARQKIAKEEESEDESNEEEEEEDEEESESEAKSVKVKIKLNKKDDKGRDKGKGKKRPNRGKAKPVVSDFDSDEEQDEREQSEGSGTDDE
T2 sequence (P51532 whole entry): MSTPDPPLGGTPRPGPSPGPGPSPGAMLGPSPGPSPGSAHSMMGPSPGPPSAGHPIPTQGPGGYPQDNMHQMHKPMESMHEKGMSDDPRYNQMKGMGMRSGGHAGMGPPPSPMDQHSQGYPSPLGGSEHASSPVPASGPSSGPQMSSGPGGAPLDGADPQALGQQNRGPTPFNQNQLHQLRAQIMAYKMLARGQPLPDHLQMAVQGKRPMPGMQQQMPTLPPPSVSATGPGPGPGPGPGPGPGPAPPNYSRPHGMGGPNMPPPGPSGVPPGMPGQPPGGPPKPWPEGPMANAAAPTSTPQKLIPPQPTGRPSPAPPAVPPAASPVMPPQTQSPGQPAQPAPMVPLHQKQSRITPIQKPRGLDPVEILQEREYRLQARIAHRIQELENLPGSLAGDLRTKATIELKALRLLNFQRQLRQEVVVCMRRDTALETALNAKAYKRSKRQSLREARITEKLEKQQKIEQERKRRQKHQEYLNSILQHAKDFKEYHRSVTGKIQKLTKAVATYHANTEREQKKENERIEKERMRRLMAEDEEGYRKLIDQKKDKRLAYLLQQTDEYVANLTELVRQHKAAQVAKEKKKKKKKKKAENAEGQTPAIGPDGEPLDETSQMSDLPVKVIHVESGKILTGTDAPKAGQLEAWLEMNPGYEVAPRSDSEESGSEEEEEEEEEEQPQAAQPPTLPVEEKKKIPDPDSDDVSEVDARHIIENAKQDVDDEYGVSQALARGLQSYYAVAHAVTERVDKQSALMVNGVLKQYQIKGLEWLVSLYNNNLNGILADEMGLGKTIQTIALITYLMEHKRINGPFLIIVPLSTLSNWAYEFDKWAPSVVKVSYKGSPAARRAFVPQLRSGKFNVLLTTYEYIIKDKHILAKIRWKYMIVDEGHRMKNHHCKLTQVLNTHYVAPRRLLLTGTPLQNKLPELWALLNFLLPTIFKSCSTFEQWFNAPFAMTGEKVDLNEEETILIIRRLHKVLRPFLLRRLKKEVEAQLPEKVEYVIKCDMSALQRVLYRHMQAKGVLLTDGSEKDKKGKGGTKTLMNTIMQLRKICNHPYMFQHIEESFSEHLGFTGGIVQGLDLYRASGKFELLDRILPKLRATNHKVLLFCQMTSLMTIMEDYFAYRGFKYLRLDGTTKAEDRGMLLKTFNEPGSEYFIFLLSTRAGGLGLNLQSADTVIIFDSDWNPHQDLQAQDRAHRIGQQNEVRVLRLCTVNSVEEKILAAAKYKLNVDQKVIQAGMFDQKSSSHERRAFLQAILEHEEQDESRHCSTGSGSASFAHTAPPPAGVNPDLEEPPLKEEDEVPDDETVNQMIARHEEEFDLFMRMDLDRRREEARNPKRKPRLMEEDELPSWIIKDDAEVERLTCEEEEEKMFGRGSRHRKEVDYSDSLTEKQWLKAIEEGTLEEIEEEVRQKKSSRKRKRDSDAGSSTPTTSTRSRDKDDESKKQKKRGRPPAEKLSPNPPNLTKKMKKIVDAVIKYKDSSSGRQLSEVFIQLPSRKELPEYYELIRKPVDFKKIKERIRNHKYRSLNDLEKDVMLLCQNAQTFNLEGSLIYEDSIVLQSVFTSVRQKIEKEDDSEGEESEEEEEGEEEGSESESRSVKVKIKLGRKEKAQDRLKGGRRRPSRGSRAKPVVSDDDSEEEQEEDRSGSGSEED

SMILES	DC50 [1]	DC50 [2]	Dmax [2]	BRM HiBit Degradation Maximum (%) [1]
Cc1ncsc1-c1ccc(CNC(=O)[C@@H]2C[C@@H](O)CN2C(=O)[C@@H](NC(=O)CCN2CC3(C2)CN(CC(=O)NCc2ccc(CCOc4cc(-c5ccccc5O)nnc4N)cc2)C3)C(C)(C)C)cc1 [Compound 196, (2S,4R)-1-((S)-2-(3-(6-(2-((4-(2-((3-amino-6-(2-hydroxyphenyl)pyridazin-4-yl)oxy)ethyl)benzyl)amino)-2-oxoethyl)-2,6-diazaspiro[3.3]heptan-2-yl)propanamido)-3,3-dimethylbutanoyl)-4-hydroxy-N-(4-(4-methylthiazol-5-yl)benzyl)pyrrolidine-2-carboxamide]	> 1000 nM	> 1000 nM	< 50%	C (“C” indicates maximum degradation <50%)
Cc1ncsc1-c1ccc(CNC(=O)[C@@H]2C[C@@H](O)CN2C(=O)[C@@H](NC(=O)COCCOCCOCC(=O)NCc2ccc(CCOc3cc(-c4ccccc4O)nnc3N)cc2)C(C)(C)C)cc1 [Compound 38, (2S,4R)-1-[(2S)-2-[2-(2-[2-[([[4-(2-[[3-amino-6-(2-hydroxyphenyl)pyridazin-4-yl]oxy]ethyl)phenyl]methyl]carbamoyl)methoxy]ethoxy]ethoxy)acetamido]-3,3-dimethylbutanoyl]-4-hydroxy-N-[[4-(4-methyl-1,3-thiazol-5-yl)phenyl]methyl]pyrrolidine-2-carboxamide]	> 1000 nM	> 1000 nM	< 50%	B (“B” indicates maximum degradation ≥50%)
Nc1nnc(-c2ccccc2O)cc1OCCc1ccc(CNC(=O)CCCCNc2ccc3c(c2)CN(C2CCC(=O)NC2=O)C3=O)cc1 (centres unmarked) [Compound 137, N-(4-(2-((3-amino-6-(2-hydroxyphenyl)pyridazin-4-yl)oxy)ethyl)benzyl)-5-((2-(2,6-dioxopiperidin-3-yl)-1-oxoisoindolin-5-yl)amino)pentanamide]	> 1000 nM	> 1000 nM	< 50%	C (“C” indicates maximum degradation <50%)
Cc1ncsc1-c1ccc(CNC(=O)[C@@H]2C[C@H](O)CN2C(=O)[C@@H](NC(=O)CCCCCCCCCNC(=O)c2ccc(CCOc3cc(-c4ccccc4O)nnc3N)cc2)C(C)(C)C)cc1 [Compound 105, (2S,4S)-1-((S)-2-(10-(4-(2-((3-amino-6-(2-hydroxyphenyl)pyridazin-4-yl)oxy)ethyl)benzamido)decanamido)-3,3-dimethylbutanoyl)-4-hydroxy-N-(4-(4-methylthiazol-5-yl)benzyl)pyrrolidine-2-carboxamide]	> 1000 nM	> 1000 nM	< 50%	C (“C” indicates maximum degradation <50%)
Nc1nnc(-c2ccccc2O)cc1OCCc1ccc(CNCCNc2cccc3c2C(=O)N(C2CCC(=O)NC2=O)C3=O)cc1 (centres unmarked) [Compound 109, 4-[[2-([[4-(2-[[3-amino-6-(2-hydroxyphenyl)pyridazin-4-yl]oxy]ethyl)phenyl]methyl]amino)ethyl]amino]-2-(2,6-dioxopiperidin-3-yl)isoindole-1,3-dione, formic acid salt]	> 1000 nM	> 1000 nM	< 50%	C (“C” indicates maximum degradation <50%)
Cc1ncsc1-c1ccc(CNC(=O)[C@@H]2C[C@@H](O)CN2C(=O)[C@@H](NC(=O)CCCCCCCCCNC(=O)CN2CCN(c3cc(-c4ccccc4O)nnc3N)CC2)C(C)(C)C)cc1 [Compound 102, (2S,4R)-1-[(2S)-2-[10-(2-[4-[3-amino-6-(2-hydroxyphenyl)pyridazin-4-yl]piperazin-1-yl]acetamido)decanamido]-3,3-dimethylbutanoyl]-4-hydroxy-N-[[4-(4-methyl-1,3-thiazol-5-yl)phenyl]methyl]pyrrolidine-2-carboxamide]	> 100 nM	> 1000 nM	< 50%	A (“A” indicates maximum degradation ≥75%)
Cc1ncsc1-c1ccc(CNC(=O)[C@H]2C[C@H](O)CN2C(=O)[C@H](NC(=O)CCCCCNC(=O)c2ccc(CCOc3cc(-c4ccccc4O)nnc3N)cc2)C(C)(C)C)cc1 (stereo in doubt) [Compound 53, (2R,4S)-1-((R)-2-(6-(4-(2-((3-amino-6-(2-hydroxyphenyl)pyridazin-4-yl)oxy)ethyl)benzamido)hexanamido)-3,3-dimethylbutanoyl)-4-hydroxy-N-(4-(4-methylthiazol-5-yl)benzyl)pyrrolidine-2-carboxamide]	> 1000 nM	> 1000 nM	< 50%	C (“C” indicates maximum degradation <50%)

Further lines, with some results ahead:

DC50 [1]	DC50 [2]	Dmax [2]	SMILES	BRM HiBit Degradation Maximum (%) [1]
> 100 nM	> 1000 nM	< 50%	Cc1ncsc1-c1ccc([C@H](C)NC(=O)[C@@H]2C[C@@H](O)CN2C(=O)[C@@H](c2cc(OCCN3CC(CC(=O)NCc4ccc(CCOc5cc(-c6ccccc6O)nnc5N)cc4)C3)no2)C(C)C)cc1 [Compound 193, (2S,4R)-1-[2-[3-(2-[3-[([[4-(2-[[3-amino-6-(2-hydroxyphenyl)pyridazin-4-yl]oxy]ethyl)phenyl]methyl]carbamoyl)methyl]azetidin-1-yl]ethoxy)-1,2-oxazol-5-yl]-3-methylbutanoyl]-4-hydroxy-N-[(1S)-1-[4-(4-methyl-1,3-thiazol-5-yl)phenyl]ethyl]pyrrolidine-2-carboxamide]	B (“B” indicates maximum degradation ≥50%)
> 100 nM	> 1000 nM	< 50%	Nc1nnc(-c2ccccc2O)cc1N1CCN(CC(=O)NCCCCCCCCNc2ccc3c(c2)C(=O)N(C2CCC(=O)NC2=O)C3=O)CC1 (centres unmarked) [Compound 83, 2-[4-[3-amino-6-(2-hydroxyphenyl)pyridazin-4-yl]piperazin-1-yl]-N-(8-[[2-(2,6-dioxopiperidin-3-yl)-1,3-dioxoisoindol-5-yl]amino]octyl)acetamide]	B (“B” indicates maximum degradation ≥50%)
> 100 nM	> 100 nM	> 75%	Cc1ncsc1-c1ccc([C@H](C)NC(=O)[C@@H]2C[C@@H](O)CN2C(=O)[C@@H](c2cc(OCCN3CC(C4CN(C(=O)c5ccc(CCOc6cc(-c7ccccc7O)nnc6N)cc5)C4)C3)no2)C(C)C)cc1 [Compound 222, (2S,4R)-1-((R)-2-(3-(2-(1′-(4-(2-((3-amino-6-(2-hydroxyphenyl)pyridazin-4-yl)oxy)ethyl)benzoyl)-[3,3'-biazetidin]-1-yl)ethoxy)isoxazol-5-yl)-3-methylbutanoyl)-4-hydroxy-N-((S)-1-(4-(4-methylthiazol-5-yl)phenyl)ethyl)pyrrolidine-2-carboxamide]	A (“A” indicates maximum degradation ≥75%)
> 10 nM	> 1000 nM	> 50%	Nc1nnc(-c2ccccc2O)cc1OCCc1ccc(CNCCCC2CN(c3cccc4c3C(=O)N(C3CCC(=O)NC3=O)C4=O)C2)cc1 (centres unmarked) [Compound 114, 4-(3-(3-((4-(2-((3-amino-6-(2-hydroxyphenyl)pyridazin-4-yl)oxy)ethyl)benzyl)amino)propyl)azetidin-1-yl)-2-(2,6-dioxopiperidin-3-yl)isoindoline-1,3-dione]	B (“B” indicates maximum degradation ≥50%)
